# Literature values in US5639739A, “Imidazole containing aminoboronic acids” (The DuPont Merck Pharmaceutical Company, priority 1995, dated 1997).
# Tests used:
# chymotrypsin = chymotrypsin (Bos taurus, UniProt P00766); conditions: Matteson et al. 1981
# thrombin = conditions: literature values
# human thrombin = human thrombin (Homo sapiens, UniProt P00734)
structure (smiles),measurement,setting,value
"CC(=O)N[C@@H](Cc1ccccc1)B(O)O [Acborophe-OH, R-1-acetamido-2-phenylethane boronic acid]",Ki,chymotrypsin,4000 nM
N#CC(CCCNC(=N)N)NC(=O)[C@@H]1CCCN1C(=O)[C@H](N)Cc1ccccc1 (stereo partly drawn) [D-phenylalanyl-prolyl-NHCH((CH2)3 NHC(=NH)NH2)--CN],Ki,thrombin,700 nM
N=C(N)NCCC[C@@H](C=O)NC(=O)[C@@H]1CCCN1C(=O)[C@H](N)Cc1ccccc1 [D-phenylalanyl-prolyl-arginal],Ki,"human thrombin; human thrombin, literature values",75 nM
N=C(N)NCCC[C@H](NC(=O)[C@@H]1CCCN1C(=O)[C@H](N)Cc1ccccc1)C(=O)CCl [H-(D) Phe-Pro-ArgCH2 Cl],kind of inhibition of human thrombin,human thrombin; Kettner and Shaw 1979,selective but irreversible inhibitor
